Consider 2 compounds from publication PMC11582573, “An evolutionarily conserved metabolite inhibits biofilm formation in Escherichia coli K-12” (Nature Communications, 2024).

For test [1], the target named is T1, IspG (Escherichia coli, UniProt P62620).
T1 sequence (P62620 1-372): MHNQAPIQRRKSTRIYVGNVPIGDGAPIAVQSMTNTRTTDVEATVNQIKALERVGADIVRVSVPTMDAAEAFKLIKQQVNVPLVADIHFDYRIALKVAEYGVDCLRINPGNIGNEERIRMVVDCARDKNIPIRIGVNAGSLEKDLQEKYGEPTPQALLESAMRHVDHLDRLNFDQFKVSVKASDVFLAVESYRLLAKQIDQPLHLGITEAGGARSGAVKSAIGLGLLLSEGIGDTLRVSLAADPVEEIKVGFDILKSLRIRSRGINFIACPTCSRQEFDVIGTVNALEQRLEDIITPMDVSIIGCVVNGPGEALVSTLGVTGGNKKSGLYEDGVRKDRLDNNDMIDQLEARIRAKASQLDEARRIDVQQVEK
Nature of the test: microscale thermophoresis. Conditions: read-out: binding affinity. On the technique in general: In MST a laser heats a spot of the sample, and binding alters the fluorescence response.

The target of test [2] is T2, H-NS (Escherichia coli, UniProt P0ACF8).
T2 construct: gene hns
T2 sequence (P0ACF8 2-137): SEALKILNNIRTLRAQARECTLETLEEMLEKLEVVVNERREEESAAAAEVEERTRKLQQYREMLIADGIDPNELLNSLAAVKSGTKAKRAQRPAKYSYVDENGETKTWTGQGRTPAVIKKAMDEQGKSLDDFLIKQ
Nature of the test: microscale thermophoresis. The following applies: read-out: binding affinity.

For test [3], the target named is T1, IspG. Nature of the test: protein thermal shift assay. Format: binding. The following applies: 200 µM HMBPP, 2 µM protein, 25 mM MOPS pH 7.5, 50 mM NaCl.

On to `C[C@@]1(CO)OP(=O)(O)OP(=O)(O)OC[C@H]1O` [MEcPP], for which the Kd was found to be 29.4 ± 10 µM in test [1] and 6.46 ± 2.17 µM in test [2].
For the compound `C/C(=C\COP(=O)(O)OP(=O)(O)O)CO` [HMBPP], in test [3], the “shift in the melting temperature” value is “MEcPP and HMBPP, two known IspG binding metabolites, effectively changed the melting temperature of IspG”.
